{"source": "patent US20240408112A1", "about": "“METHOD FOR PREVENTING OR TREATING PULMONARY ARTERIAL HYPERTENSION BY USING 7-DEHYDROCHOLESTEROLS OR SALTS, OXIDES, METABOLITES, OR DERIVATIVES THEREOF” (EXCELSIOR PHARMATECH LABS., priority 2023, published 2024)", "tested_on": "human pulmonary artery endothelial cells (hPAEC)", "assay": "BrdU cell proliferation assay, 10% FBS, hPAEC", "type": "cell-based", "method": "BrdU (5-bromo-2-deoxyuridine) cell proliferation assay (BrdU assay)\nA 48-well plate was used, and 1.5×10^4 cells were implanted in each well. After 24 hours, the medium was changed to serum-free culture medium and synchronized for 24 hours. A 2-fold concentration of the compound in serum-free culture medium is prepared and the cells were pretreated for 1 hour. Then, the same volume of culture medium containing 20% fetal bovine serum (FBS) was added to dilute the compound. The final concentration was 10% FBS culture medium and 1 times the concentration of the compound. In the experimental group that added TGF-β, the same volume of TGF-β culture medium containing 10 ng/mL was added, with a final concentration of 5 ng/mL TGF-β and 1 times the concentration of the compound, and in the experimental group added with TGF-β, the entire process was conducted in culture medium containing 0.1% serum. Then, BrdU reagent was added about 6 hours later, and the cells were collected the next day for enzyme-linked immunosorbent assay (ELISA) analysis, the compound treatment time was about 24 hours, and the BrdU treatment time was about 18 hours.\nFive compounds to be tested were screened by cell survival assay (MTT assay) and BrdU (5-bromo-2-deoxyuridine) cell proliferation assay, and the information of these compounds was listed in Table 1 below. Tables 2 and 3 respectively listed the growth inhibitions of on human pulmonary artery endothelial cells (hPAEC), human pulmonary artery smooth muscle cells (hPASMC), normal rat pulmonary artery smooth muscle cells (rPASMC, as the control group, represented by “CON”), and rat pulmonary artery smooth muscle cells (represented by “MCT”), by the five compounds to be tested under the conditions of 10% FBS, 0.1% FBS and 100 pM TGF-β."}
{"smiles": "CC(C)CCCC(C)C1CCC2C3=CC=C4CC(O)CCC4(C)C3CCC21C", "note": "(centres unmarked) [Code 039, 7-DHC]", "values": [{"measurement": "EC50", "setting": "Homo sapiens, Endothelial cell, read-out: EC50 (concentration for 50% of maximal effect)", "result": 47, "unit": "µM"}, {"measurement": "Inhibition of cell growth (in words)", "setting": "hPAEC, 10% FBS, FIG. 2", "result": "inhibition of cell growth can also be observed"}]}
